The test system of experiment [1] is embolic occlusion of the middle cerebral artery in male Sprague-Dawley rats. The experiment in a line: Embolic stroke model in SD rat (Examples 1, 4-6). It is filed as in vivo, Sprague-Dawley rat. Conditions: for Mean neurological deficit scores (NDS): 24 hours after drug administration. How it is done: A 10% chloral hydrate solution (400 mg/kg) was injected intraperitoneally into SD male rats (240-320 g) for anesthesia. A vertical incision of about 2 cm in length was made on the right side near the center of the neck, and the right common carotid artery (CCA), external carotid artery (ECA) and internal carotid artery (ICA) were separated along the margin of the inner side of sternocleidomastoid muscles. The incision at the internal carotid artery and the proximal end of the common carotid artery were clipped respectively with noninvasive arterial clips. A small incision was made on the external carotid artery, and the distal end of the external carotid artery was ligated. The arterial clip at the proximal end of the common carotid artery was released, and 10 μl blood was drawn. After blood was drawn, the proximal end of the common carotid artery was again clipped with a noninvasive arterial clip. The 10 μl blood drawn was placed in a 1 mL EP vial and kept at RT for 30 min to allow the coagulation of blood and then transferred into a −20° C. refrigerator for 1 hour to allow the formation of solid coagulation. 1 hour later, the blood clots were taken out, 1 mL normal saline was added therein, and then the blood clots were broken into relatively uniform microthrombus by a steel spatula. The microthrombus suspension was then transferred into a 1 mL injector for use. When the clip on the internal carotid artery of the rat was released, the 1 mL thrombus suspension in the injector was slowly injected from the external carotid artery of the rat to its proximal end, and then was injected into the brain of the rat through the internal carotid artery. Subsequently, the proximal end of the external carotid artery was ligated, the arterial clips on the internal carotid artery and the common carotid artery were released, and blood flow was restored. The common jugular vein was separated, and then injected with normal saline solution, or tested compound. The vein was ligated. 3 drops of penicillin was dropped on the wound. The wound was sewed, and animals were waited for awake.
24 hours after the rats were awake, the degree of damage in neural function was evaluated by the Zealonga method. A score of 0 indicated no sign of loss in neural function, 1 indicated the front limbs on the undamaged side could not stretch out, 2 indicated walking toward the undamaged side, 3 indicated tail-chasing walking in circles toward the undamaged side, 4 indicated involuntary walking with disturbance of consciousness, and 5 indicated death. The evaluation results were statistically analyzed and subjected to t-test.
After the rats were awake for 24 hours and assessed for their degree of damage in neural function by Zealonga method, they were anesthetized with urethane followed by immediate decapitation and removal of the brain. Brain tissues were kept in a −20° C. refrigerator for 2 hours, and coronal sections of about 2 mm were successively sliced from the prefrontal end for a total of 5 sections and then placed into a 2% TTC solution to incubate without light at 37° C. for 30 min. The color change in brain sections was observed: normal brain tissues were stained red by TTC, while ischemic brain tissues appeared in white. Photographs were taken by using a digital camera and processed with image statistics software, and the volume of infarction in brain tissues and the area of normal brain tissues in the coronal sections were calculated. The ratio of the cerebral infarction volume of each group was statistically calculated and subject to t-test.
An embolic occlusion of the middle cerebral artery in male Sprague-Dawley rats was induced by introducing blood clots into the carotid artery. Rats were treated with vehicle (saline), rtPA (10 mg/kg, IV bolus injection), or DC009 (0.007 mg/kg, IV bolus injection) after 3 hours of stroke onset (n=12-13 per treatment group). […]

The test system of experiment [2] is photochemically induced thrombosis of the middle cerebral artery in rats. The experiment can be described thus: Photochemically induced thrombotic (PIT) stroke model in rats (Examples 3, 10). The settings on record: 24 hours after PIT surgery. It is filed as in vivo, rat. How it is done:
Under anesthesia, the left middle cerebral artery (MCA) was occluded by a thrombus generated at the site of photoirradiation. The left MCA was exposed via a transorbital approach. A vertical incision was made between the left orbital and the external auditory canal. The temporal muscle was reflected and a subtemporal craniotomy was performed without removing the zygomatic arch. A window of approximately 3 mm in diameter was opened at the base of the skull. The main trunk of the left MCA was visible through the window. Endothelial cells in the MCA were focally injured by a photochemical reaction between rose bengal and green illumination (X540 nm, 600,000 Lux). Rose bengal (20 mg/kg) was intravenously dose and then the MCA was exposed to green light for a period of 10 min. During surgery, animals were placed on a heating pad set at 38 C.
Twenty-four hours (±2 hrs.) after thromboembolism, and once daily for the next five days, neurologic deficits were scored according to a modified method described by Ederson et al. (Stroke, 1986, 17: 472-476). A total of “0” indicates no deficit whereas a maximal score of “15” indicates severe deficits.
Each brain was cut into six coronal blocks with a rat brain matrix (2 mm interval). Brains were post-fixed overnight in 4% paraformaldehyde at 3.1-6.2° C., stored in phosphate-buffered saline and sent out for histological processing. Each coronal block was embedded in paraffin. One coronal section from each block was taken and stained with hematoxylin and eosin (HE).
From the HE-stained sections, the infarct areas (mm^2) were manually marked using OsiriX version 8.0.2 (Pixmeo SARL, Bernex, Switzerland). The volume of ischemic infarction (mm^3) was calculated as the […] (six coronal sections per brain). Infarct volumes were calculated in cerebral cortex and basal ganglia. Total infarct volume was calculated by adding the infarct volumes of the basal ganglia and cerebral cortex.
Rats were treated with vehicle (saline), rtPA (10 mg/kg), DC009 (0.007 mg/kg, 15-minute IV infusion) after 1 hours of stroke onset, or DC009 (0.007 mg/kg, 15-minute IV infusion) after 3 hours of stroke onset. (n=10 per treatment group). At 24 hours after drug administration, rats were assessed with a neurological deficit scale (NDS).
24 hours after PIT surgery, rats were euthanized, and brains were processed for […].

[3] abbreviates: DC009 0.007 mg/kg, 15-minute IV infusion, 1 hr post-PIT.
Where [4] appears, read: DC009 0.007 mg/kg, 15-minute IV infusion, 3 hr post-PIT.

The record followed here is patent publication US12648942B2, “Method for treating acute ischemic stroke” (Lumosa Therapeutics Co., LTD, priority 2021, dated 2026).

On to `CC(NC(=O)C1CCCN1)C(=O)NC(CCCCN)C(=O)NCCCCC(NC(=O)C1Cc2cc(O)c(O)cc2C(C)(C)N1)C(=O)O` (stereo not drawn) [DC009, 3S-6,7-dihydroxy-1,1-dimethyl-1,2,3,4-tetrahydro-isoquinoline-3-acyl-Lys(Pro-Ala-Lys)], for which the “infarct volumes (% hemisphere)” value in experiment [1] (DC009 0.0007 mg/kg IV bolus from 24 hours after stroke onset, once daily for 6 days, 7 days after stroke) is given as 9.95 ± 10.32% hemisphere. Besides, in experiment [1] (data from Example 4-6), the “effective dose in the rat Embolic Stroke Model” value fell in the range of 7 to 70 µg/kg. In experiment [2] (setting [3]), the “infarction volume, Basal ganglia” value was 63.7 ± 10.3 ** mm^3 and the “infarction volume, Cerebral cortex” value is on record as 210.6 ± 26.4 mm^3. In experiment [2] (setting [4]), the “infarction volume, Basal ganglia” value is listed as 94.8 ± 6.2 mm^3; the “infarction volume, Cerebral cortex” value is reported as 227.7 ± 18.4 mm^3; the “infarction volume, Total” value is 322.5 ± 23.0 mm^3.

As for “rtPA: Alteplase (Activase), a recombinant tissue-type plasminogen activator (rtPA) [reference compound]”, the “Mean neurological deficit scores (NDS)” value in experiment [1] (rtPA 3 mg/kg IV bolus 6 hours after stroke onset, 6-point scale) is listed as 3.27 ± 1.85; in experiment [1] (rtPA 10 mg/kg IV bolus 3 hours after stroke onset, scale 0-5), 2.13 ± 1.173. For the same compound, the “infarct volumes (% hemisphere)” value in experiment [1] (rtPA 3 mg/kg IV bolus 6 hours after stroke onset, 24 hours, TTC) came out at 17.90 ± 7.47% hemisphere; in experiment [1] (rtPA 10 mg/kg IV bolus 3 hours after stroke onset, 24 hours, TTC) it was 12.74 ± 9.02% hemisphere. The “infarction volume, Basal ganglia” value turned out to be 80.7 ± 4.3 mm^3 in experiment [2] (rtPA 10 mg/kg, 1 hr post-PIT) and 87.0 ± 7.0 mm^3 in experiment [2] (rtPA 10 mg/kg, 3 hr post-PIT). Moreover, the “infarction volume, Cerebral cortex” value was 200.0 ± 18.1 mm^3 in experiment [2] (rtPA 10 mg/kg, 1 hr post-PIT) and 173.5 ± 19.4 ** mm^3 in experiment [2] (rtPA 10 mg/kg, 3 hr post-PIT). Moreover, the “infarction volume, Total” value in experiment [2] (rtPA 10 mg/kg, 3 hr post-PIT) is on record as 260.6 ± 23.9 ** mm^3.
